Assays:
Assay in all cases: relative viability (nuclei count vs DMSO), 5 days (fraction); higher = more cells survive
Crenolanib + AZD7762 = compound: CC1(COc2ccc3c(c2)ncn3-c2ccc3cccc(N4CCC(N)CC4)c3n2)COC1 [Crenolanib] + NC(=O)Nc1cc(-c2cccc(F)c2)sc1C(=O)N[C@H]1CCCNC1 [AZD7762] (partner 0.2 µM)
How it was run: (§1)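 Lung cancer cell lines in 1536-well plates were dosed by pin tool the day after seeding, either with one drug alone or with a fixed anchor-drug dose plus five library-drug doses (not always all listed) in √10 steps. After 5 days, cells were fixed and their nuclei stained in one step (final 0.05% Triton X-100, 1% formaldehyde, 1 ug/ml Hoechst), then counted on 4× images. Relative viability is the nuclei count in treated wells divided by that in vehicle wells. Values are medians of duplicate plates.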

Crenolanib + Palbociclib = compound: CC1(COc2ccc3c(c2)ncn3-c2ccc3cccc(N4CCC(N)CC4)c3n2)COC1 [Crenolanib] + CC(=O)c1c(C)c2cnc(Nc3ccc(N4CCNCC4)cn3)nc2n(C2CCCC2)c1=O [Palbociclib] (partner 0.5 µM)
How it was run: as §1

Tivantinib + Decitabine = compound: O=C1NC(=O)[C@@H](c2cn3c4c(cccc24)CCC3)[C@@H]1c1c[nH]c2ccccc12 [Tivantinib] + Nc1ncn([C@H]2C[C@H](O)[C@@H](CO)O2)c(=O)n1 [Decitabine] (partner 2 µM)
How it was run: as §1

Tivantinib + Crizotinib = compound: O=C1NC(=O)[C@@H](c2cn3c4c(cccc24)CCC3)[C@@H]1c1c[nH]c2ccccc12 [Tivantinib] + C[C@@H](Oc1cc(-c2cnn(C3CCNCC3)c2)cnc1N)c1c(Cl)ccc(F)c1Cl [Crizotinib] (partner 1 µM)
How it was run: as §1

Cell Line	relative viability (Crenolanib + AZD7762; first compound 0.01 µM)	relative viability (Crenolanib + AZD7762; first compound 0.03162 µM)	relative viability (Crenolanib + AZD7762; first compound 0.1 µM)	relative viability (Crenolanib + AZD7762; first compound 0.3162 µM)	relative viability (Crenolanib + AZD7762; first compound 1 µM)	relative viability (Crenolanib + Palbociclib; first compound 0.01 µM)	relative viability (Crenolanib + Palbociclib; first compound 0.03162 µM)	relative viability (Crenolanib + Palbociclib; first compound 0.1 µM)	relative viability (Crenolanib + Palbociclib; first compound 0.3162 µM)	relative viability (Crenolanib + Palbociclib; first compound 1 µM)	relative viability (Tivantinib + Decitabine; first compound 0.01 µM)	relative viability (Tivantinib + Decitabine; first compound 0.03162 µM)	relative viability (Tivantinib + Decitabine; first compound 0.1 µM)	relative viability (Tivantinib + Decitabine; first compound 0.3162 µM)	relative viability (Tivantinib + Crizotinib; first compound 0.01 µM)	relative viability (Tivantinib + Crizotinib; first compound 0.03162 µM)	relative viability (Tivantinib + Crizotinib; first compound 0.1 µM)	relative viability (Tivantinib + Crizotinib; first compound 0.3162 µM)
LXF-289	1.03	1.13	1.09	1.11	1.05	0.628	0.595	0.62	0.648	0.618	0.37	0.375	0.367	0.367	0.792	0.819	0.777	0.827
ABC-1		0.776	0.961	1.01	0.902	0.775	0.638	0.549	0.643	0.899	1.23	1.22	0.825	0.968	1.39	1.14	0.91	1.5
NCI-H2170	0.941	0.852	0.897	0.934	0.852	0.384	0.432	0.38	0.422	0.417	0.47	0.48	0.486		1.31	1.13	1.04	
NCI-H1355	0.729	0.89	0.705	0.732	0.653	0.405	0.457	0.4	0.472	0.351	0.377	0.316	0.342	0.381	1.15	1.1	1.01	0.806
EBC-1															0.184	0.189	0.195	0.198
NCI-H2405	0.801		0.554	0.773	0.646	0.584		0.39	0.541	0.539	0.754	0.789	0.73	0.79	0.892	0.879	0.821	0.821
NCI-H2009						0.219	0.22	0.251	0.186	0.19	0.361	0.365	0.328	0.391	1.05	1.07	1.06	0.98
NCI-H441	1.24	1.56	1.15	1.33	1.17	0.261	0.236	0.217	0.262	0.242	0.22	0.261	0.139	0.239	0.847	0.725	0.546	0.801
NCI-H1563															0.851	0.893	0.822	0.884
NCI-H2342	0.607	0.475	0.475	0.532	0.484	0.521	0.545	0.574	0.533	0.598	0.845	0.789	0.699	0.624				
NCI-H661						0.433	0.416	0.424	0.408	0.43	0.565	0.542	0.558	0.398	0.914	1	0.962	0.736
COR-L23						0.245	0.319	0.299	0.306	0.266	0.496	0.446	0.433	0.445	0.677	0.662	0.611	0.844
COR-L 105						0.435	0.467	0.436	0.379	0.417	0.641	0.662	0.589	0.596	0.725	0.769	0.787	0.435
NCI-H1793	0.549	0.794	0.538	0.366	0.645	0.295	0.321	0.302	0.36	0.43	0.502	0.497	0.495	0.404				
NCI-H596	1.27	1.16	1.03	1.22	1.11						1.12	1.07	1.01	1.12	1.08	0.92	0.987	0.905
A549											0.246	0.276	0.228	0.294	0.894	0.81	0.713	0.638
NCI-H520						0.252	0.214	0.289	0.267	0.309	0.462	0.454	0.46	0.436	0.797	0.764	0.758	1.05
NCI-H1650						0.397	0.281	0.324	0.308	0.387	0.406	0.389	0.416	0.413	1.07	0.903	1.04	0.984
NCI-H1395	0.374	0.392	0.412	0.457	0.473	0.622	0.628	0.677	0.635	0.628	0.736	0.665	0.845	0.713				
NCI-H2228						0.758	0.866	0.629	0.92	0.815					0.449	0.481	0.427	0.337
NCI-H1299															0.686	0.972	0.587	0.93
NCI-H2023						0.358	0.373	0.386	0.434	0.335	0.24	0.218	0.212	0.221	0.602	0.762	0.673	0.639
SW 900	0.735		0.756	0.858	0.522	0.591		0.449	0.523	0.554	0.461	0.46	0.482	0.443				
SW 1573						0.369	0.458	0.422	0.368	0.42	0.688	0.462	0.446	0.494	0.751	0.761	0.902	0.496
IA-LM															0.962	0.857	0.677	1.08
NCI-H1648	0.666		0.673	0.673	0.745	0.254		0.262	0.29	0.267		0.507	0.513	0.397				
